Measured values reported in US20240409557A1, “5,6-FUSED AND 6,6-FUSED BICYCLIC ALCOHOLS AND ETHERS AND COMPOSITIONS FOR USE AS 15-PROSTAGLANDIN DEHYDROGENASE MODULATORS” (AMGEN INC., priority 2023, published 2024).

Columns and labels:
[1] = molecular target: T1, 15-PGDH in A549 cells (Homo sapiens, UniProt P15428); experiment: A549 cellular 15-PGDH assay (PGE2 accumulation, HTRF); format: cell-based; conditions: interleukin-stimulated, inhibitor 24 hrs, PGE2 by competitive HTRF, read-out: A549 Cell Assay IC50
T1 construct: endogenous in cells; host or cells: A549
T1 sequence (P15428 1-266): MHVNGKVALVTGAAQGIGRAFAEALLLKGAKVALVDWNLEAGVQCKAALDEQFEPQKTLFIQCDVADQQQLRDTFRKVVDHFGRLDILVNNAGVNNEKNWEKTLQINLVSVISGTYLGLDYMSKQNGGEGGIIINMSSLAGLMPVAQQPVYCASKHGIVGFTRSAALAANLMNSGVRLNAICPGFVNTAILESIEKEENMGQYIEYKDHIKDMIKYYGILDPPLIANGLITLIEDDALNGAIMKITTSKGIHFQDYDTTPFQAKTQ
Method in brief: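 IL-13-stimulated A549 lung carcinoma cells released PGE2, which was measured in supernatants by competitive HTRF with a Eu-cryptate anti-PGE2 antibody and labelled PGE2. Signal falls as PGE2 rises. IC50 values were derived from the binding data.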

[2] = molecular target: T2, human recombinant 15-PGDH (Homo sapiens, UniProt P15428); experiment: Recombinant 15-PGDH enzymatic inhibition assay (PGDH-Lumi, NADH signal); format: biochemical; conditions: recombinant 15-PGDH; 15 min pre-incubation, 60 min reaction with PGE2 and NAD+, NADH signal
T2 sequence (P15428 1-266): T1 sequence (P15428 1-266)
Method in brief: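 Recombinant 15-PGDH pre-incubated 15 min at room temperature with compound (22 concentrations, 2-fold dilutions) in 50 mM Tris pH 7.5, 0.01% Tween-20, […].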

| IC50 [1] | IC50 [2] | SMILES |
| --- | --- | --- |
| 2.87 nM | 10 nM | Cc1nc2ccc(-c3ccc4cc(C5(O)CC(F)(F)C5)sc4n3)cc2o1 [Compound C39, 3,3-difluoro-1-(6-(2-methyl-1,3-benzoxazol-6-yl)thieno[2,3-b]pyridin-2-yl)cyclobutanol] |
| 0.579 nM | 0.517 nM | CC(C)C(O)c1cc2ccc(-c3cnc4nn(C)cc4c3)nc2s1 (centres unmarked) [Compound B24, 2-methyl-1-(6-(2-methyl-2H-pyrazolo[3,4-b]pyridin-5-yl)thieno[2,3-b]pyridin-2-yl)propan-1-ol] |
| 2.49 nM | 17 nM | Cn1cc2cc(-c3cnc4cc([C@H](O)C5CC(F)(F)C5)sc4c3)cnc2n1 (single isomer, unassigned) [Compound B78R] |
| 1.35 nM | 1.68 nM | Cc1cn2cc(-c3ccc4cc(C5(O)CC(F)(F)C5)sc4n3)cnc2n1 [Compound C45, 3,3-difluoro-1-(6-(2-methylimidazo[1,2-a]pyrimidin-6-yl)thieno[2,3-b]pyridin-2-yl)cyclobutanol] |
| 9.58 nM | 27 nM | Cn1cc2cc(-c3ccc4cc([C@@H](O)C5CC5)sc4n3)cnc2n1 (single isomer, unassigned) [Compound B16S] |
| 4.77 nM | 0.543 nM | Cn1cc2cc(-c3cc(-c4ccnn4C)c4cc(C(C)(O)C5CCC5)sc4n3)cnc2n1 (centres unmarked) [Compound C23, 1-cyclobutyl-1-(6-(2-methyl-2H-pyrazolo[3,4-b]pyridin-5-yl)-4-(1-methyl-1H-pyrazol-5-yl)thieno[2,3-b]pyridin-2-yl)ethanol] |
| 0.288 nM | 0.436 nM | CCn1cc2cc(-c3ccc4cc([C@@H](O)C5CC(F)(F)C5)sc4n3)cnc2n1 (single isomer, unassigned) [Compound B53S] |
| 0.795 nM | 0.26 nM | Cn1cc2cc(-c3ccc4cc(C(O)C5CC(F)(F)C5)sc4n3)cnc2n1 (centres unmarked) [Compound B30, (3,3-difluorocyclobutyl)(6-(2-methyl-2H-pyrazolo[3,4-b]pyridine-5-yl)thieno[2,3-b]pyridine-2-yl)methanol] |
| 5.85 nM | 2.14 nM | Cn1cc2cc(-c3ccc4nc([C@]5(O)C[C@](C)(C#N)C5)sc4n3)cnc2n1 (single isomer, unassigned) [Compound C91T, trans-3-hydroxy-1-methyl-3-(5-(2-methyl-2H-pyrazolo[3,4-b]pyridin-5-yl)[1,3]thiazolo[5,4-b]pyridin-2-yl)cyclobutanecarbonitrile] |
| 0.957 nM | 0.701 nM | Cn1cc2cc(-c3ccc4cc(C(O)C5CCOCC5)sc4n3)cnc2n1 (centres unmarked) [Compound B15, (6-(2-methyl-2H-pyrazolo[3,4-b]pyridin-5-yl)thieno[2,3-b]pyridin-2-yl)(tetrahydro-2H-pyran-4-yl)methanol] |
| 5.27 nM | 1.46 nM | Cc1cn2ncc(-c3ccc4cc([C@]5(O)C[C@@H](C(F)F)C5)sc4n3)cc2n1 [Compound C92C, cis-3-(difluoromethyl)-1-(6-(2-methylimidazo[1,2-b]pyridazin-7-yl)thieno[2,3-b]pyridin-2-yl)cyclobutanol] |
| 0.666 nM | 0.291 nM | Cn1cc2cc(-c3ncc4cc([C@]5(O)C[C@@H](C6CC6)C5)sc4n3)cnc2n1 [Compound C99C, cis-3-cyclopropyl-1-(2-(2-methyl-2H-pyrazolo[3,4-b]pyridin-5-yl)thieno[2,3-d]pyrimidin-6-yl)cyclobutanol] |
| 7.36 nM | 27.7 nM | Cn1cc2cc(-c3ccc4cc(C5(O)CC(F)(F)C5)sc4c3)cnc2n1 [Compound C48, 3,3-difluoro-1-(6-(2-methyl-2H-pyrazolo[3,4-b]pyridin-5-yl)-1-benzothiophen-2-yl)cyclobutanol] |
| 1.69 nM | 0.371 nM | Cn1cc2cc(-c3ccc4cc(C5(O)CC(F)(F)C5)sc4n3)cnc2n1 [Compound C5, 3,3-difluoro-1-(6-(2-methyl-2H-pyrazolo[3,4-b]pyridin-5-yl)thieno[2,3-b]pyridin-2-yl)cyclobutanol] |
| 1.03 nM | 0.637 nM | Cn1cc2cc(-c3ccc4cc(C(O)[C@H]5CCOC5)sc4n3)cnc2n1 (single isomer, unassigned) [B19(RS)S] |
| 1.61 nM | 286 nM | Cn1cc2cc(-c3ccc4cc([C@@H](O)C5(C)CC(F)(F)C5)sc4n3)cnc2n1 (single isomer, unassigned) [Compound B86S] |
| 7.6 nM | 2.89 nM | Cn1nnc2cc(-c3ncc4cc([C@]5(O)C[C@@H](C(F)F)C5)sc4n3)cnc21 [Compound C85C, cis-3-(difluoromethyl)-1-(2-(3-methyl-3H-[1,2,3]triazolo[4,5-b]pyridin-6-yl)thieno[2,3-d]pyrimidin-6-yl)cyclobutanol] |
| 2.42 nM | 1.03 nM | Cc1c2ccc(-c3cnc4nn(C)cc4c3)nc2sc1[C@]1(O)C[C@@H](C(F)(F)F)C1 [Compound C78C, cis-1-(3-methyl-6-(2-methyl-2H-pyrazolo[3,4-b]pyridin-5-yl)thieno[2,3-b]pyridin-2-yl)-3-(trifluoromethyl)cyclobutanol] |
| 1.82 nM | 13.2 nM | Cn1cc2cc(-c3ccc4cc(C5(O)CC(F)(F)C5)sc4n3)ccc2n1 [Compound C49, 3,3-difluoro-1-(6-(2-methyl-2H-indazol-5-yl)thieno[2,3-b]pyridin-2-yl)cyclobutanol] |
| 253 nM | 198 nM | Cn1cc2cc(-c3ccc4ccc([C@]5(O)C[C@@H](C(F)F)C5)cc4n3)cnc2n1 [Compound D5C, cis-3-(difluoromethyl)-1-(2-(2-methyl-2H-pyrazolo[3,4-b]pyridin-5-yl)-7-quinolinyl)cyclobutanol] |
| 0.997 nM | 1.18 nM | Cn1cc2cc(-c3ccc4cc([C@]5(O)C[C@@]6(CCO6)C5)sc4n3)cnc2n1 (single isomer, unassigned) [Compound C56T, trans-6-(6-(2-methyl-2H-pyrazolo[3,4-b]pyridin-5-yl)thieno[2,3-b]pyridin-2-yl)-1-oxaspiro[3.3]heptan-6-ol] |
| 2.47 nM | 0.603 nM | CC(C)n1cc2cc(-c3ccc4cc([C@H](O)C5CC(F)(F)C5)sc4n3)ccc2n1 (single isomer, unassigned) [Compound B56R] |
| 7.19 nM | 1.42 nM | CO[C@]1(C(F)(F)F)C[C@@](O)(c2cc3cnc(-c4cnc5nn(C)cc5c4)nc3s2)C1 (single isomer, unassigned) [Compound C113C, cis-3-methoxy-1-(2-(2-methyl-2H-pyrazolo[3,4-b]pyridin-5-yl)thieno[2,3-d]pyrimidin-6-yl)-3-(trifluoromethyl)cyclobutanol] |
| 1.35 nM | 0.832 nM | Cc1nc2cc(-c3ccc4cc(C5(O)CC(F)(F)C5)sc4n3)cnc2[nH]1 [Compound C35, 3,3-difluoro-1-(6-(2-methyl-3H-imidazo[4,5-b]pyridin-6-yl)thieno[2,3-b]pyridin-2-yl)cyclobutanol] |
| 0.0594 nM | 0.28 nM | Cn1cc2cc(-c3ccc4cc(C5(O)CC6(CC6)C5)sc4n3)cnc2n1 [Compound C61, 5-(6-(2-methyl-2H-pyrazolo[3,4-b]pyridin-5-yl)thieno[2,3-b]pyridin-2-yl)spiro[2.3]hexan-5-o1] |
